Patent US12247004B2, “2-amino-N-(amino-oxo-aryl-lambda6-sulfanylidene)acetamide compounds and their therapeutic use” (Oxford Drug Design Limited, priority 2019, dated 2025)
Values after ≈ are worked out from the molar mass of the structure shown. Where two headings read alike, the source gives them in different places.

How the values were obtained:
E. coli ATCC 25922 = test: Efficacy in a murine model of disseminated infection (microbial burden in blood, kidney, spleen); type: in vivo; details: mouse; 30 mg/kg sc once at 1 hr post-infection; harvest 5 hr
[1] = molecular target: Isoleucyl-tRNA synthetase (IleRS) (Escherichia coli (strain K12), UniProt P00956); test: Isoleucyl-tRNA synthetase enzyme inhibition (AMP-Glo; single point % inhibition at 100 μM and IC50); type: biochemical
Isoleucyl-tRNA synthetase (IleRS), sequence (P00956 whole entry, looked up): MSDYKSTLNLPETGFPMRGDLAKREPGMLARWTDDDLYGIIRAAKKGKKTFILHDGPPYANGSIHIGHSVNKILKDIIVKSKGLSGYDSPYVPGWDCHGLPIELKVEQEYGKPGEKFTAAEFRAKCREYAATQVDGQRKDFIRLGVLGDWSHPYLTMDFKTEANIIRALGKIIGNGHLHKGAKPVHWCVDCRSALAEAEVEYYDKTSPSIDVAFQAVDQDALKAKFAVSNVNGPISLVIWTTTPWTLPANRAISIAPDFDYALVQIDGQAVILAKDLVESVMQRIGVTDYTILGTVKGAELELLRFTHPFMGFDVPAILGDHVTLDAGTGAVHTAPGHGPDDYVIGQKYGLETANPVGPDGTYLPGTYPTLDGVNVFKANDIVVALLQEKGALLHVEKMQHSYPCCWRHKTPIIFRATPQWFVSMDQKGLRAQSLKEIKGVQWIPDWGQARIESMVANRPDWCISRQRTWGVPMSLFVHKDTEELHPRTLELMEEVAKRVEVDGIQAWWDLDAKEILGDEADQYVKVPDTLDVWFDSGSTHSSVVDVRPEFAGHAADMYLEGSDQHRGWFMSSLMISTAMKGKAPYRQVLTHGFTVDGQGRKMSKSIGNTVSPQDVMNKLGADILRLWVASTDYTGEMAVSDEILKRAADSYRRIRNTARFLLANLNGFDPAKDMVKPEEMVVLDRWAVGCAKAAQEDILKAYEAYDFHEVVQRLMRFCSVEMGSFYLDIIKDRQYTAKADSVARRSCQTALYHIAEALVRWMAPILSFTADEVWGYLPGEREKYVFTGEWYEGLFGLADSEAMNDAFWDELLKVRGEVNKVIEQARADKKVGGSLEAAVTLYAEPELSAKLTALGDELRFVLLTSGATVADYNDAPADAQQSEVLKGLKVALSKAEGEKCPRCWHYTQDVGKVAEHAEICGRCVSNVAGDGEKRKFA
Text: Study 1—Enzyme Inhibition
The aminoacylation reaction catalyzed by aminoacyl-tRNA synthetases (aaRS) takes place in two steps. In the first step, aaRS activates its cognate amino acid with ATP; and in the second step the activated amino acid is loaded to its corresponding tRNA. This reaction can be summarized as follows: aaRS+aa+ATP=aaRS-aa-AMP+PPi aaRS-aa-AMP+tRNA=aa-tRNA+AMP+aaRS […]
wherein: aaRS, aminoacyl-tRNA synthetase; aa, amino acid; aaRS-aa-AMP, enzyme-bound to aminoacyl-adenylate; AMP, adenosine monophosphate; aa-tRNA, aminoacyl-tRNA, PPi, inorganic pyrophosphate.
Isoleucyl-tRNA Synthetase a. Single Point Percentage Inhibition
The activity of the pathogenic aaRSs was monitored by measuring AMP production using the commercial kit AMP-Glo (Promega, Madison, USA).
Ligand stock solutions were prepared in 100% DMSO at 10 mM concentration. An assay buffer consisting of 100 mM Tris HCl pH 7.6, 40 mM MgCl, 20 mM KCl and 150 mM NaCl was prepared in dH2O. An enzyme solution containing 51.77 μM IleRS was prepared in assay buffer to provide 30 nM final assay concentration and 75 nM reservoir concentration for a 1:2.5 dilution in the assay. A substrate solution was also prepared in assay buffer with 50 mM L-isoleucine, 10 mM ATP and 100 mg/mL tRNA. A final assay concentration of 500 μM L-isoleucine, 5 μM ATP and 1 mg/mL tRNA and reservoir concentration of 833.33 μM L-isoleucine, 8.33 μM ATP and 1.67 mg/mL tRNA was used for a 1:1.66 dilution in assay.
Enzyme percentage inhibition values were recorded in triplicate at a single point concentration of 100 μM.
Using the same enzymatic assay in a 384-well plate format, ten point concentration response curves were generated for each compound using a top concentration of 100 μM. The known inhibitor, IleAMS was used as a positive control for the IleRS assay. 100% DMSO was used as a negative control. The IC50 was calculated based on non-linear regression analysis.

[2] = system: bacteria (ATCC reference strains); test: Antibacterial activity, MIC by broth micro-dilution (CLSI)
[3] = Human cell viability / cytotoxicity (CellTiter-Glo, 24 hours); type: cell-based; details: human, HepG2 cells (ATCC HB-8065); HepG2 ATCC HB-8065, 24 hours; read-out: Cytotoxicity in HepG2 ATCC HB-8065 Cell Line, IC50
Method in brief: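 HepG2 cells (15,000/well, MEM with 1% NEAA and 1% pyruvate) were grown 2 days, then exposed to compounds in duplicate for 24 h at 1.28% DMSO. Viability was read as ATP by CellTiter-Glo luminescence relative to DMSO-only wells. IC50 is in μg/mL.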

E. coli UT189 = test: Efficacy in a murine model of urinary tract infection (microbial burden in urine, bladder, kidney); type: in vivo; details: Experiment 2; mouse UTI; 10 mg/kg/dose iv at 24, 36, 48 and 60 hr
Description: All animal studies were performed under UK Home Office License PA67E0BAA (protocol E9 for UTI model) with local ethical committee clearance. All studies were performed by technicians who have completed parts A, B and C of the UK Home Office Personal License course and hold current personal licenses. All experiments were performed in dedicated Biohazard 2 facilities (the site holds a Certificate of Designation). Female mice used in these studies were supplied by Janvier laboratories and were specific pathogen free. The strain of mouse used was C3H/HeNRj, which is a well characterized inbred strain. Mice were 16-20 g on receipt and were allowed to acclimatize for at least 7 days prior to any intervention. Five days prior to infection mice were transferred onto drinking water containing 5% glucose. […] It was stored at 4° C. between doses. Test articles were prepared by solubilising in water for injection, taking the salt correction factor into account. […] Mice (n=6 per group) were infected by directly administering 0.05 mL of inoculum via the urethra into the bladder under parenteral anaesthesia. Drinking water was withheld two hours pre-infection and bladders were emptied prior to infection. Once infected, infection catheters were left in the urinary tract for 10 minutes to reduce the risk of the organism flowing back out. The mice were monitored at a frequency appropriate for their clinical condition. Mouse weights were recorded at least once daily both to ensure animals remained within ethical limits and to monitor efficacy of treatment. Twenty-four hours post infection, urine was collected from pre-treatment animals and used to assess the infection level. Urine samples were quantitatively cultured onto MacConkey's agar plates and incubated at 37° C. for 24 hours before colonies were counted. In addition, five mice were euthanised by pentobarbitone overdose to provide a 24 hour pre-treatment control group. Forty-eight hours post-infection, urine was collected from all mice. Seventy-two hours post infection, the clinical condition and body weight of all remaining animals was assessed and urine samples were collected. Animals were then euthanised by pentobarbitone overdose and kidneys and bladders were removed and weighed. Tissue samples were homogenized using a Precellys 24 dual bead beater in 2 mL ice cold sterile phosphate buffered saline. Homogenates and urine samples were quantitatively cultured onto MacConkey's agar plates and incubated at 37° C. for 24 hours before colonies were counted. Data Analysis The data from the culture burdens were analysed using appropriate non-parametric statistical models (Kruskal-Wallis using Conover-Inman to make all pairwise comparisons between groups) with StatsDirect software, and compared to pretreatment and vehicle controls.

[4] = E. coli IleRS, read-out: Enzyme Inhibition - IC50, E. coli IleRS
[5] = Acinetobacter baumannii, read-out: Antibacterial Activity (MIC), E = A. baumannii B1931
[6] = Enterobacter cloacae, read-out: Antibacterial Activity (MIC), B = Enterobacter cloacae B1966
[7] = Escherichia coli, ATCC25922, read-out: Antibacterial Activity (MIC), A = E. coli ATCC 25922
[8] = Haemophilus influenzae, ATCC49247, read-out: Antibacterial Activity (MIC), F = H. influenzae ATCC 49247
[9] = Klebsiella pneumoniae, ATCC700603, read-out: Antibacterial Activity (MIC), C = K. pneumoniae ATCC 700603
[10] = Pseudomonas aeruginosa, ATCC27853, read-out: Antibacterial Activity (MIC), D = P. aeruginosa ATCC 27853

Question: Which results are given for `CN(C)c1cc(NC(=O)CNC(C)(C)C)c(O)c2c1C[C@H]1C[C@H]3[C@H](N(C)C)C(O)=C(C(N)=O)C(=O)[C@@]3(O)C(O)=C1C2=O` [Tigecycline, tigecycline, reference compound]?
Answer: Reduction in burden from vehicle control, Blood (E. coli ATCC 25922): 5.13 Log10 cfu/g or mL; Reduction in burden from vehicle control, Kidney (E. coli ATCC 25922): 5.62 Log10 cfu/g or mL; Reduction in burden from vehicle control, Spleen (E. coli ATCC 25922): 5.15 Log10 cfu/g or mL

Question: With `CC[C@H](C)[C@H](N)C(=O)N=[S@](N)(=O)c1cccc(-c2ccccc2)c1` [ANASIA-032-1] as the molecule, how does the IC50 [1, 4] read?
Answer: The IC50 was 50.8 µM.

Question: With `CC[C@H](C)[C@H](N)C(=O)N=[S@@](N)(=O)c1ccc2c(c1)CCO2` [ANASIA-053-1] as the molecule, how does the IC50 [1, 4] read?
Answer: The IC50 was 20.2 µM.

Question: What does the source list for `CC[C@H](C)[C@H](N)C(=O)N=S(N)(=O)c1ccc(C(F)F)s1` (stereo partly drawn) [ANASIA-038]?
Answer: MIC [2, 5]: > 64 µg/mL; MIC [2, 6]: > 64 µg/mL; MIC [2, 7]: > 64 µg/mL; MIC [2, 8]: 64 µg/mL (≈ 197 µM); MIC [2, 9]: > 64 µg/mL; MIC [2, 10]: > 64 µg/mL; IC50 at 24 h [3]: > 64 µg/mL; IC50 [1, 4]: 15.8 µM

Question: Which MIC [2, 5] does the source give for `CC[C@H](C)[C@H](N)C(=O)N=S(N)(=O)c1cc2sccc2s1` (stereo partly drawn) [ANASIA-138] here?
Answer: Its MIC is > 64 µg/mL.

Question: What about the MIC [2, 6] of the same molecule?
Answer: Its MIC is > 64 µg/mL.

Question: What about the MIC [2, 7] of the same molecule?
Answer: Its MIC is > 64 µg/mL.

Question: What about the MIC [2, 8] of the same molecule?
Answer: The MIC was 16 µg/mL (≈ 48.3 µM).

Question: What about the MIC [2, 9] of the same molecule?
Answer: The MIC was > 64 µg/mL.

Question: And the MIC [2, 10]?
Answer: The MIC was > 64 µg/mL.

Question: What about the IC50 at 24 h [3] of the same molecule?
Answer: Its IC50 at 24 h is > 64 µg/mL.

Question: What about the IC50 [1, 4] of the same molecule?
Answer: The IC50 was 0.383 µM.

Question: For `CC[C@H](C)[C@H](N)C(=O)N=[S@@](N)(=O)c1ccc2cccnc2c1` [ANASIA-054-2], which IC50 [1, 4] is on record?
Answer: The IC50 was 19.9 µM.

Question: With `CC[C@H](C)[C@H](N)C(=O)N=[S@@](N)(=O)c1ccc(Cl)cc1.Cl` [ANASIA-035-2] as the molecule, how does the MIC [2, 5] read?
Answer: Its MIC is > 64 µg/mL.

Question: And the MIC [2, 6]?
Answer: The MIC was > 64 µg/mL.

Question: And the MIC [2, 7]?
Answer: Its MIC is > 64 µg/mL.

Question: And the MIC [2, 8]?
Answer: The MIC was 64 µg/mL.

Question: And the MIC [2, 9]?
Answer: The MIC was > 64 µg/mL.

Question: And the MIC [2, 10]?
Answer: Its MIC is > 64 µg/mL.

Question: And the IC50 at 24 h [3]?
Answer: The IC50 at 24 h was > 64 µg/mL.

Question: What about the IC50 [1, 4] of the same molecule?
Answer: The IC50 was 4.65 µM.

Question: For `CC[C@H](C)[C@H](N)C(=O)N=[S@](N)(=O)c1ccsc1Cl` [ANASIA-078-1], which IC50 [1, 4] is on record?
Answer: The IC50 was 16.4 µM.

Question: For `CC[C@H](C)[C@H](N)C(=O)N=[S@](N)(=O)c1ccc(OC)cc1` [ANASIA-055-1], which IC50 [1, 4] is on record?
Answer: Its IC50 is 35.1 µM.

Question: Which IC50 [1, 4] does the source give for `CC[C@H](C)[C@H](N)C(=O)N=[S@](N)(=O)c1csc2ccccc12` [ANASIA-057-1] here?
Answer: Its IC50 is 27.5 µM.

Question: With `CC[C@H](C)[C@H](N)C(=O)N=[S@](N)(=O)c1ccc(C)cc1.Cl` [ANASIA-034-1] as the molecule, how does the MIC [2, 5] read?
Answer: The MIC was > 64 µg/mL.

Question: What about the MIC [2, 6] of the same molecule?
Answer: The MIC was > 64 µg/mL.

Question: And the MIC [2, 7]?
Answer: Its MIC is > 64 µg/mL.

Question: And the MIC [2, 8]?
Answer: Its MIC is 64 µg/mL.

Question: And the MIC [2, 9]?
Answer: The MIC was > 64 µg/mL.

Question: And the MIC [2, 10]?
Answer: The MIC was > 64 µg/mL.

Question: What about the IC50 at 24 h [3] of the same molecule?
Answer: The IC50 at 24 h was > 64 µg/mL.

Question: What about the IC50 [1] of the same molecule?
Answer: Its IC50 is 14.7 µM.

Question: Which “Reduction in burden from vehicle control, Bladder 72 hr” value (E. coli UT189) does the source give for `O=C(O)c1cn(C2CC2)c2cc(N3CCNCC3)c(F)cc2c1=O` [Cinprofloxacin] here?
Answer: Its value is 2.74 Log10 cfu/g or mL.

Question: And the “Reduction in burden from vehicle control, Kidney 72 hr” value (E. coli UT189)?
Answer: The value was 4.12 Log10 cfu/g or mL.

Question: What about the “Reduction in burden from vehicle control, Urine 48 hr” value (E. coli UT189) of the same molecule?
Answer: Its value is 5.32 Log10 cfu/g or mL.

Question: And the “Reduction in burden from vehicle control, Urine 72 hr” value (E. coli UT189)?
Answer: The value was 4.76 Log10 cfu/g or mL.
